# Publication PMC5353688, “Both Drosophila matrix metalloproteinases have released and membrane-tethered forms but have different substrates” (Scientific Reports, 2017)
# Columns and labels:
# [1] = molecular target: T1, DmMmp2 (Drosophila melanogaster, UniProt Q8MPP3); assay: gelatin zymography of FLAG immunoprecipitate; type: biochemical; details: GM6001 25 uM in sample before electrophoresis, 10 uM in renaturing and developing buffers; gelatin substrate; complete inhibition, no constant
# T1 construct: gene Mmp2; full-length cDNA, 3xFLAG inserted after S710 (before GPI-anchor signal), expressed in S2 cells, immunoprecipitated from conditioned media (released form); ~110 kDa in lysate
# T1 sequence (Q8MPP3 137-738): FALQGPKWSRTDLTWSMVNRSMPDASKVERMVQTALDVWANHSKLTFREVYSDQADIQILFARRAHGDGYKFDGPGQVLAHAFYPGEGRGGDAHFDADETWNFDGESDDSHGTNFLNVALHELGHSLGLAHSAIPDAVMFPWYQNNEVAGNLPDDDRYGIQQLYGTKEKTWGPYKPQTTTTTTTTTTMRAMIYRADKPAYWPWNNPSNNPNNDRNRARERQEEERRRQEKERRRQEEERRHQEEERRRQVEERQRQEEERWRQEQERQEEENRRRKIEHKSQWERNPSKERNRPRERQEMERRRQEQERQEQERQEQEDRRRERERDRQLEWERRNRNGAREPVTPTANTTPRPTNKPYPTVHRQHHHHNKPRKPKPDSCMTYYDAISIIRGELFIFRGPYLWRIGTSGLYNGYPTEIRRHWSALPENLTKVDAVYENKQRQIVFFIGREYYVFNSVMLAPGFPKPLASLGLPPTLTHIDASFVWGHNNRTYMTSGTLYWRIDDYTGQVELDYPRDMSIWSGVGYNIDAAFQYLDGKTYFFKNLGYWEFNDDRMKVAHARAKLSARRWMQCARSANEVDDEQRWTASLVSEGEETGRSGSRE
# [2] = molecular target: T2, DmMmp1 (Mmp1-PF) (Drosophila melanogaster, UniProt Q8MLN6); type: biochemical; details: GM6001 25 uM in sample before electrophoresis, 10 uM in renaturing and developing buffers; casein substrate; complete inhibition, no constant
# T2 construct: full-length cDNA (541 residues), C-terminal FLAG kept, expressed in S2 cells, immunoprecipitated from conditioned media; secreted form has lost pro-domain; ~65 kDa in lysate
# T2 sequence (Q8MLN6 109-541): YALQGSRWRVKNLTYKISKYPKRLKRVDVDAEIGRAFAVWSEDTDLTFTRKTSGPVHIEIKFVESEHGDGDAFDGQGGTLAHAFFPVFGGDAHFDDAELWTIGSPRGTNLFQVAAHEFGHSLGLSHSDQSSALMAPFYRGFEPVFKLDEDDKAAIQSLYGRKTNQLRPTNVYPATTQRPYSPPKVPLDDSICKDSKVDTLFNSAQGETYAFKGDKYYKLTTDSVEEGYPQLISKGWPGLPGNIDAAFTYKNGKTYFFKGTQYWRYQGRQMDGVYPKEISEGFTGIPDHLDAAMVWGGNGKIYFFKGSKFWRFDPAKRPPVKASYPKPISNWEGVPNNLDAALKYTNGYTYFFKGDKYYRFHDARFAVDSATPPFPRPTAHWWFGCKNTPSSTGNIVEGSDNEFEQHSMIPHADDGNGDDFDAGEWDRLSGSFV
smiles,measurement,setting,value
CNC(=O)[C@H](Cc1c[nH]c2ccccc12)NC(=O)[C@@H](CC(=O)NO)CC(C)C [GM6001],gelatin zymography of FLAG immunoprecipitate,[1],GM6001 completely inhibited Mmp1 and Mmp2 catalytic activity on zymograms
same,casein zymography of FLAG immunoprecipitate,[2],GM6001 completely inhibited Mmp1 and Mmp2 catalytic activity on zymograms
